According to patent publication US11572359B2, “PARP/PI3K double-target inhibit containing pyridopyrimidine structure” (CHINA PHARMACEUTICAL UNIVERSITY, priority 2017, dated 2023):
Like-named read-outs stand apart in the source and are kept apart here. Each block holds one molecule with its values, some of them ahead of it.

How the values were obtained:
[1] = test system: Human Breast Cancer MDA-MB-468 Cell Nude Mice Xenograft; assay: Growth of human breast cancer MDA-MB-468 cell nude mice xenograft; type: in vivo; conditions: abdominal cavity, once every 2 days; for Tumor weights: after 34 days, in g (unit assumed)
Method: Preparing an MDA-MB-468 cell line in a logarithmic growth phase into a 2×10^7/mL cell suspension under sterile conditions, and inoculating 0.1 mL of the cell suspension under the skin of the right axilla of each nude mouse. Measuring the diameter of a nude mice xenograft with a vernier caliper, and randomly dividing the animals into groups after the tumors grew to about 100 mm^3. Dynamically observing an anti-tumor effect of the tested animals using a method of measuring the tumor diameter, wherein the frequency of measurements of the tumor diameter is once every 2 days, and the administration volume is 0.4 mL/20 g. After 34 days, killing the mice and surgically removing and weighing tumor pieces. The formula for calculating tumor volume (TV) is: TV=½×a×b^2, wherein a and b represent the length and the width respectively.

PARP-1 = PARP-1 (Homo sapiens, UniProt P09874); assay: PARP-1 inhibitory activity at the enzyme level (histone-coated plate, chemiluminescence); type: biochemical; conditions: for inhibition at 0.01 µM: 10 nM compound, read-out: Inhibition rate on PARP-1 (10 nM)
Method: Experimental method for PARP-1 inhibitory activity: taking out a 96-well plate pre-coated with histones, and adding a following enzyme reaction system and inhibitors of different concentrations into each well, including: 50 μL of a reaction buffer solution (Tris*HCl, pH 8.0), NAD^+, biotin-labeled activated DNA, PARP-1 enzyme, and an inhibitor; after reaction at a room temperature for 1 hour, adding 50 uL of avidin-labeled HRP into each well for reaction for 30 minutes; and then adding 100 μL of an HRP substrate, and detecting a chemiluminescence value on a SpectraMax M instrument. The percentage of enzyme activity is calculated by the following formula: Enzyme activity percentage (%)=(OD value administration hole-OD value background)/(OD value control hole−OD value background)×100%
(§1) Method for determining IC50 of PARP-1 and PI3Kα: diluting a drug concentration according to a three-fold concentration gradient, and detecting two duplicate wells at each concentration; taking the drug concentration as the abscissa and the percentage of enzyme activity corresponding to each concentration as the ordinate, and calculating to obtain inhibition IC50 values of all tested compounds by using Graphpad Prism5 for nonlinear regression.

PI3Kα = PI3Kα (Homo sapiens, UniProt P42336); assay: PI3Kα inhibitory activity at the enzyme level (ADP detection by luciferase method); type: biochemical; conditions: for inhibition at 0.1 µM: 100 nM compound, read-out: Inhibition rate on PI3Kα (100 nM)
Method: Experimental method for PI3Kα inhibitory activity: simultaneously adding 40 mM Tris, pH 7.4, 10 mM MgCl2, 0.1 mg/ml BSA, 1 mM DTT, 10 μM ATP, PI3Kα kinase and a kinase substrate into different concentrations of compounds to be sieved to form a 50 μL reaction system, after reaction at 30° C. for 40 minutes, detecting an ADP content in the system through a luciferase method, and then after reaction for 5 minutes, detecting a chemiluminescence signal on an MD-SpectraMax M5 multi-function microplate reader, wherein the intensity of a value of the chemiluminescence signal is in direct proportion to […]. The detected value of the chemiluminescence signal is substituted into the following formula: Enzyme activity percentage (%)=(OD value administration hole-OD value background)/(OD value control hole−OD value background)×100%
as §1

[2] = test system: MDA-MB-468 (human breast cancer cells); assay: Tumor cell proliferation inhibition (SRB, 72 hours), MDA-MB-468; type: cell-based
Method: Inoculating HCT116 (human colon cancer cells), HCC1937 (human breast cancer cells), MDA-MB-231 (human breast cancer cells) and MDA-MB-468 (human breast cancer cells) in a logarithmic growth phase with a certain quantity in a 96-well plate (200 μL/well) for culture for 24 hours so as to adhere to walls and then adding drugs. Arranging 3 duplicate wells for each drug concentration, and setting corresponding zero-cut holes and blank controls. After 72 hours of drug action, adding 50% TCA (50 μL/well) into adherent cells, fixing at 4° C. for 1 hour, pouring a fixing solution, washing for 5 times with distilled water, and naturally drying. Adding 100 μL of 4 mg/mL SRB into each well, staining at a room temperature for 15 minutes, discarding, washing for 5 times with 1% glacial acetic acid, and naturally drying. Finally, adding 150 μL of a 10 mM Tris solution into each well, shaking to be uniform, and measuring OD values at a wavelength of 565 nm using a wavelength-adjustable microplate reader (VERSAmax™, Molecular Device).

PI3Kα, sequence (P42336 whole entry): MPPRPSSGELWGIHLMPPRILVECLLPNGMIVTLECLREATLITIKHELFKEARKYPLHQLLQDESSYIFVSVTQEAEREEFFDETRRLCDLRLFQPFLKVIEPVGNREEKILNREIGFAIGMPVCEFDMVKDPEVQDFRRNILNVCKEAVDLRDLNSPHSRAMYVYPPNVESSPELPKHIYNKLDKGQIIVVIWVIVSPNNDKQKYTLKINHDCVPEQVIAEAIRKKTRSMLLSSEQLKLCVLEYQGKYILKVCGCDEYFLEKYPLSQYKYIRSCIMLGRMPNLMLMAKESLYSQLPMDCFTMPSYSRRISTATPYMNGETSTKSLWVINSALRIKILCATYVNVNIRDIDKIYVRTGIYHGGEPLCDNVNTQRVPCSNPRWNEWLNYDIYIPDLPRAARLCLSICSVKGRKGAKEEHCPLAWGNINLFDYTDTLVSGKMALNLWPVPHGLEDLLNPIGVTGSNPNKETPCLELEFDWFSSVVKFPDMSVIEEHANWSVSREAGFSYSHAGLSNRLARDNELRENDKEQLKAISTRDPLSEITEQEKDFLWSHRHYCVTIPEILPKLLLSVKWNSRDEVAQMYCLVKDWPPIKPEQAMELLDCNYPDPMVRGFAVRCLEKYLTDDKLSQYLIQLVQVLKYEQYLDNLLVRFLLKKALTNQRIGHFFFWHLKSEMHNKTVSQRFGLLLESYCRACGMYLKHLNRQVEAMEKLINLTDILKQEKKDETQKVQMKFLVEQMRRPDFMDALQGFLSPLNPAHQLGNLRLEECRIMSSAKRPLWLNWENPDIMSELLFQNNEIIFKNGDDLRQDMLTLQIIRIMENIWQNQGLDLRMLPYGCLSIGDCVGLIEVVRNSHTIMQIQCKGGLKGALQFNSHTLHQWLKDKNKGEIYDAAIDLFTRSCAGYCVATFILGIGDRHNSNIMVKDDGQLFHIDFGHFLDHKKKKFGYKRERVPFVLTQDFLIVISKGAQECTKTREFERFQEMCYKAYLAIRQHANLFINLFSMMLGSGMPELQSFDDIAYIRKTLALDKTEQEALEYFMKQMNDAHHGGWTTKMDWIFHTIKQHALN
PI3Kα, sequence (P27986 whole entry partner): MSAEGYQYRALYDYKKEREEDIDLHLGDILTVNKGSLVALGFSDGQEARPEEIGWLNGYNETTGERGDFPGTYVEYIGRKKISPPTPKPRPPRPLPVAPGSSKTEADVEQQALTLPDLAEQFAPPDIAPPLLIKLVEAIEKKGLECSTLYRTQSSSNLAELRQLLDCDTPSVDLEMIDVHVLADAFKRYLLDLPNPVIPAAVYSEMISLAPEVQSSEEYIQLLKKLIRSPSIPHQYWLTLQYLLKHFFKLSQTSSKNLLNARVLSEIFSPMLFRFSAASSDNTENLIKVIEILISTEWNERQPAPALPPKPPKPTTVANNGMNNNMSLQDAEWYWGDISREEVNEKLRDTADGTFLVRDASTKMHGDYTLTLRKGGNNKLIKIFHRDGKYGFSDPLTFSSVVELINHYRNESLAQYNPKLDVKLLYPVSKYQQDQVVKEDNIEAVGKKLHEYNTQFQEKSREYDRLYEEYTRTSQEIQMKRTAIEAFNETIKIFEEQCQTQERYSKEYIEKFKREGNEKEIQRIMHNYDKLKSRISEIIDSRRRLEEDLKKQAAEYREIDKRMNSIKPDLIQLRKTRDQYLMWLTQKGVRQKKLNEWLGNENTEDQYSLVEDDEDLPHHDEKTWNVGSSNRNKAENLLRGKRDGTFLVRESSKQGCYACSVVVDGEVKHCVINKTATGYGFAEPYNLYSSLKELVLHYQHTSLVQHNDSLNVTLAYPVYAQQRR
PARP-1, sequence (P09874 whole entry): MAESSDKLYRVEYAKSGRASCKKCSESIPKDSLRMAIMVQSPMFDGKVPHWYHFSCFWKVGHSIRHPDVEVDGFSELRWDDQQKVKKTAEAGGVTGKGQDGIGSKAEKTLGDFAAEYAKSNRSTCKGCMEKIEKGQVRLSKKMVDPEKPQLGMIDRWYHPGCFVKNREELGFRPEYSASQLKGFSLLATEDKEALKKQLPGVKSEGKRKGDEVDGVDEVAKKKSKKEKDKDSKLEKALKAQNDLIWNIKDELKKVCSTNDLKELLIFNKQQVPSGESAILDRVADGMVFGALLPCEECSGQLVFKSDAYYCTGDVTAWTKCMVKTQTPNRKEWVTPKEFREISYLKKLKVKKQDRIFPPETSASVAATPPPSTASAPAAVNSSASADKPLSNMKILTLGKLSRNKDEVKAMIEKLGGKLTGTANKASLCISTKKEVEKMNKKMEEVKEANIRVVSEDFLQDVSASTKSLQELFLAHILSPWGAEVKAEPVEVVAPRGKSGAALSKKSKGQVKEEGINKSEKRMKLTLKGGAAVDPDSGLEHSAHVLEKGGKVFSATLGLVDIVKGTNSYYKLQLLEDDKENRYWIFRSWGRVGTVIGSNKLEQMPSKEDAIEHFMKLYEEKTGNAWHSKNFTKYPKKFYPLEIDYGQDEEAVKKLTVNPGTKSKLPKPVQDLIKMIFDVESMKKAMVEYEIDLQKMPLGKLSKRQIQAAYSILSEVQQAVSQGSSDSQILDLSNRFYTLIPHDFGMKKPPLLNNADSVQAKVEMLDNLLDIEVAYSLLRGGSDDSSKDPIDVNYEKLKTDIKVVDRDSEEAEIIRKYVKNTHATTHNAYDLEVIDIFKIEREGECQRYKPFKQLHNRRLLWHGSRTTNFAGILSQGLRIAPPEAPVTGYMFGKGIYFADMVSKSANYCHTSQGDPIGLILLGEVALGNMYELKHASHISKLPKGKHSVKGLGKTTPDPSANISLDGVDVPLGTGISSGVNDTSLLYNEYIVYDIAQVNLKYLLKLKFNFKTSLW

Structure (SMILES): Nc1cc(C(F)(F)F)c(-c2cc(N3CCOCC3)nc(N3CCOCC3)n2)cn1 [BKM120, reference compound]
Tumor Volumes ([1]; 0 day, 27.5 mg/kg): 94.67 mm^3
Tumor Volumes ([1]; 6 days, 27.5 mg/kg): 203.83 mm^3
Tumor Volumes ([1]; 12 days, 27.5 mg/kg): 294.34 mm^3
Tumor Volumes ([1]; 18 days, 27.5 mg/kg): 388.09 mm^3
Tumor Volumes ([1]; 24 days, 27.5 mg/kg): 525.13 mm^3
Tumor Volumes ([1]; 30 days, 27.5 mg/kg): 677.51 mm^3
Tumor Volumes ([1]; 34 days, 27.5 mg/kg): 777.59 mm^3
Tumor weights ([1]; 27.5 mg/kg): 1.36

Structure (SMILES): O=C(CN1CCOCC1)Nc1cc(C(F)(F)F)c(-c2nc3c(c(N4CCOCC4)n2)CCN(C(=O)c2cc(Cc4n[nH]c(=O)c5ccccc45)ccc2F)C3)cn1 [I-4, N-(5-(7-(2-fluoro-5-((4-oxo-3,4-dihydrophthalazin-1-yl)methyl)benzoyl)-4-morpholinyl-5,6,7,8-tetrahydropyrido[3,4-cl]pyrimidin-2-yl)-4-(trifluoromethyl)pyridin-2-yl)-2-morpholinyl acetamide]
inhibition at 0.01 µM (PARP-1): 67%
inhibition at 0.1 µM (PI3Kα): 53%

Structure (SMILES): C[C@H]1COCCN1c1nc(-c2cnc(N)nc2)nc2c1CCN(C(=O)c1cc(Cc3n[nH]c(=O)c4ccccc34)ccc1F)C2 [I-11, (S)-4-(3-(2-(2-aminopyrimidin-5-yl)-4-(3-methylmorpholinyl)-5,6,7,8-tetrahydropyrido [3,4-d]pyrimidin-7-formyl)-4-fluorobenzyl)phthalazin-1(2H)-one]
IC50 (PARP-1): 0.376 nM
inhibition at 0.01 µM (PARP-1): 94%
IC50 (PI3Kα): 29.8 nM
inhibition at 0.1 µM (PI3Kα): 67%
IC50 [2]: 738 nM
IC50 ([2]; Homo sapiens, MDA-MB-468, 72 h): < 1000 nM
melting point: 214 to 216 °C

Structure (SMILES): O=C(c1cc(Cc2n[nH]c(=O)c3ccccc23)ccc1F)N1CCN(C(=O)C2CC2)CC1 [Olaparib, reference compound]
Tumor Volumes ([1]; 0 day, 50 mg/kg (I-1: medium)): 96.41 mm^3
Tumor Volumes ([1]; 6 days, 50 mg/kg (I-1: medium)): 222.00 mm^3
Tumor Volumes ([1]; 12 days, 50 mg/kg (I-1: medium)): 324.20 mm^3
Tumor Volumes ([1]; 18 days, 50 mg/kg (I-1: medium)): 422.84 mm^3
Tumor Volumes ([1]; 24 days, 50 mg/kg (I-1: medium)): 566.86 mm^3
Tumor Volumes ([1]; 30 days, 50 mg/kg (I-1: medium)): 718.76 mm^3
Tumor Volumes ([1]; 34 days, 50 mg/kg (I-1: medium)): 834.87 mm^3
Tumor weights ([1]; 50 mg/kg (I-1: medium)): 1.55

Next, values leading:

inhibition at 0.01 µM (PARP-1): 81%
inhibition at 0.1 µM (PI3Kα): 17%
melting point: 256 to 258 °C
Structure (SMILES): Nc1ncc(-c2nc3c(c(N4CCOCC4)n2)CCN(C(=O)c2cc(Cc4n[nH]c(=O)c5ccccc45)ccc2F)C3)cc1C(F)(F)F [I-5, 4-(3-(2-(6-amino-5-(trifluoromethyl)pyridin-3-yl)-4-morpholinyl-5,6,7,8-tetrahydropyrido [3,4-d]pyrimidin-7-formyl)-4-fluorobenzyl)phthalazin-1(2H)-one]

inhibition at 0.01 µM (PARP-1): 89%
inhibition at 0.1 µM (PI3Kα): 24%
melting point: 204 to 206 °C
Structure (SMILES): Nc1ccc(-c2nc3c(c(N4CCOCC4)n2)CCN(C(=O)c2cc(Cc4n[nH]c(=O)c5ccccc45)ccc2F)C3)c(F)c1 [I-6, 4-(3-(2-(4-amino-2-fluorophenyl)-4-morpholinyl-5,6,7,8-tetrahydropyrido[3,4-d]pyrimidin-7-formyl)-4-fluorobenzyl)phthalazin-1(2H)-one]

inhibition at 0.01 µM (PARP-1): 83%
inhibition at 0.1 µM (PI3Kα): 27%
melting point: 236 to 239 °C
Structure (SMILES): Nc1cc(-c2nc3c(c(N4CCOCC4)n2)CCN(C(=O)c2cc(Cc4n[nH]c(=O)c5ccccc45)ccc2F)C3)ccc1F [I-7, 4-(3-(2-(3-amino-4-fluorophenyl)-4-morpholinyl-5,6,7,8-tetrahydropyrido[3,4-d]pyrimidin-7-formyl)-4-fluorobenzyl)phthalazin-1(2H)-one]

inhibition at 0.01 µM (PARP-1): 85%
inhibition at 0.1 µM (PI3Kα): 30%
melting point: 238 to 240 °C
Structure (SMILES): O=C(c1cc(Cc2n[nH]c(=O)c3ccccc23)ccc1F)N1CCc2c(nc(-c3ccc4[nH]ccc4c3)nc2N2CCOCC2)C1 [I-9, 4-(3-(2-(1H-indole-5-yl)-4-morpholinyl-5,6,7,8-tetrahydropyrido[3,4-d]pyrimidin-7-formyl)-4-fluorobenzyl)phthalazin-1(2H)-one]

inhibition at 0.01 µM (PARP-1): 88%
inhibition at 0.1 µM (PI3Kα): 15%
Structure (SMILES): O=C(c1cc(Cc2n[nH]c(=O)c3ccccc23)ccc1F)N1CCc2c(nc(-c3cccc4[nH]ccc34)nc2N2CCOCC2)C1 [I-10, 4-(3-(2-(1H-indole-4-yl)-4-morpholinyl-5,6,7,8-tetrahydropyrido[3,4-d]pyrimidin-7-formyl)-4-fluorobenzyl)phthalazin-1(2H)-one]
